Test system: tobacco budworm (Heliothis virescens)
Assay: Tobacco budworm (Heliothis virescens) I: 96-well microtiter plates with insect diet and eggs, egg and larval mortality
Format: in vivo
Conditions: 120 h, read-out: mortality (egg and larval mortality, visually assessed)
Protocol: B.1 Tobacco Budworm (Heliothis virescens) I
For evaluating control of tobacco budworm (Heliothis virescens) the test unit consisted of 96-well-microtiter plates containing an insect diet and 15-25 H. virescens eggs. The compounds were formulated using a solution containing 75% v/v water and 25% v/v DMSO. Different concentrations of formulated compounds were sprayed onto the insect diet at 10 μl, using a custom built micro atomizer, at two replications. After application, microtiter plates are incubated at about 28±1° C. and about 80±5% relative humidity for 5 days. Egg and larval mortality is then visually assessed.

Row | SMILES | mortality at 2500 ppm
1 | CC(=NNC(=O)NCC(F)(F)F)c1ccc(C2=NOC(c3cc(Cl)cc(Cl)c3)(C(F)(F)F)C2)cc1C (centres unmarked) [Compound 1-19, 1-{4-[5-(3,5-dichloro-phenyl)-5-trifluoromethyl-4,5-dihydro-isoxazol-3-yl]-2-methyl-phenyl}-ethanone-4-trifluoroethylsemicarbazone] | ≥ 75%
2 | Cc1cc(C2=NOC(c3cc(Cl)cc(Cl)c3)(C(F)(F)F)C2)ccc1C=NNC(=O)NCC(F)(F)F (centres unmarked) [Compound 1-1, 4-[5-(3,5-dichloro-phenyl)-5-trifluoromethyl-4,5-dihydro-isoxazol-3-yl]-2-methyl-benzaldehyde-4-trifluoroethylsemicarbazone] | ≥ 75%

Reference: patent US9085541B2, “Process for producing imine compounds for combating invertebrate pests” (priority 2010, dated 2015)
